Measurements: ChEMBL document CHEMBL1201862, “PubChem BioAssay data set” (2004)
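Values below derive from 48-hour exposures of cells grown in 96-well plates, with endpoints linearly interpolated between the two concentrations bracketing the appropriate inhibition level. The concentration for 50% growth inhibition is given as GI50.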 The source made the active and inactive calls. No stated cut-off is given here; in the data, active = GI50 up to about 1.1 µM and inactive = higher.

What was measured:
Experiment in all cases: DTP human tumour cell line panel, 48 h
NCI-H522 = tested on: NCI-H522
TK-10 = tested on: TK-10
HOP-92 = tested on: HOP-92
SF-539 = tested on: SF-539
SK-MEL-5 = tested on: SK-MEL-5
OVCAR-8 = tested on: OVCAR-8
M19-MEL = tested on: M19-MEL
UO-31 = tested on: UO-31
HL-60 = tested on: HL-60
SR = tested on: SR
OVCAR-3 = tested on: OVCAR-3
SNB-75 = tested on: SNB-75
SNB-19 = tested on: SNB-19
KM12 = tested on: KM12
CCRF-CEM = tested on: CCRF-CEM
NCI-H226 = tested on: NCI-H226
MOLT-4 = tested on: MOLT-4
CAKI-1 = tested on: CAKI-1
DU-145 = tested on: DU-145

Row | SMILES | GI50 (NCI-H522) | GI50 (TK-10) | GI50 (HOP-92) | GI50 (SF-539) | GI50 (SK-MEL-5) | GI50 (OVCAR-8) | GI50 (M19-MEL) | GI50 (UO-31) | GI50 (HL-60) | GI50 (SR) | GI50 (OVCAR-3) | GI50 (SNB-75) | GI50 (SNB-19) | GI50 (KM12) | GI50 (CCRF-CEM) | GI50 (NCI-H226) | GI50 (MOLT-4) | GI50 (CAKI-1) | GI50 (DU-145)
1 | CSc1cnc2ccccc2c1Sc1c[nH]c2ccccc2c1=O | 1.93 µM (inactive) | 36 µM (inactive) | 8.39 µM (inactive) | 11.5 µM (inactive) | 6.25 µM (inactive) | 14 µM (inactive) | 5.22 µM (inactive) | 14 µM (inactive) | 3.3 µM (inactive) | 3.96 µM (inactive) | 5.22 µM (inactive) | 2.79 µM (inactive) | 20 µM (inactive) | 6.82 µM (inactive) | 4.52 µM (inactive) | 7.31 µM (inactive) | 3.28 µM (inactive) | – | –
2 | c1ccc2cc(-c3cc4ccccc4s3)ccc2c1 | > 100 µM (inactive) | > 100 µM (inactive) | > 100 µM (inactive) | > 100 µM (inactive) | > 100 µM (inactive) | > 100 µM (inactive) | > 100 µM (inactive) | > 100 µM (inactive) | > 100 µM (inactive) | > 100 µM (inactive) | > 100 µM (inactive) | 23.1 µM (inactive) | > 100 µM (inactive) | > 100 µM (inactive) | > 100 µM (inactive) | > 100 µM (inactive) | 38.2 µM (inactive) | > 100 µM (inactive) | –
3 | CCn1c(O)c(C(=O)Nc2cccs2)c(=O)n(CC)c1=S | 18 µM (inactive) | 29 µM (inactive) | 21 µM (inactive) | 18.5 µM (inactive) | 18 µM (inactive) | 14.2 µM (inactive) | 19.1 µM (inactive) | – | 19.8 µM (inactive) | 29.5 µM (inactive) | 16.6 µM (inactive) | 17.5 µM (inactive) | 19.5 µM (inactive) | 16.8 µM (inactive) | 26.7 µM (inactive) | 25.5 µM (inactive) | 20 µM (inactive) | 22.6 µM (inactive) | –
4 | COC1/C(=C\C(C)=O)c2ccccc2N1C(C)=O (stereo unspecified) | – | – | > 100 µM (inactive) | > 100 µM (inactive) | – | > 100 µM (inactive) | > 100 µM (inactive) | > 100 µM (inactive) | > 100 µM (inactive) | > 100 µM (inactive) | > 100 µM (inactive) | > 100 µM (inactive) | > 100 µM (inactive) | > 100 µM (inactive) | > 100 µM (inactive) | – | > 100 µM (inactive) | > 100 µM (inactive) | –
5 | COc1ccc(/C(Cl)=C/c2ccc(Cl)c(Cl)c2)cc1 | 16.3 µM (inactive) | – | 30.1 µM (inactive) | 43.7 µM (inactive) | 18 µM (inactive) | 29.1 µM (inactive) | 30.6 µM (inactive) | 26.5 µM (inactive) | 17.3 µM (inactive) | 18.9 µM (inactive) | – | 28.5 µM (inactive) | 63.4 µM (inactive) | – | 21.9 µM (inactive) | 14.9 µM (inactive) | 16.2 µM (inactive) | – | –
6 | CCOC(=O)C/C(=N\c1cc(C)on1)N(CC)CC.[O-][Cl+3]([O-])([O-])O | > 100 µM (inactive) | > 100 µM (inactive) | > 100 µM (inactive) | > 100 µM (inactive) | > 100 µM (inactive) | > 100 µM (inactive) | > 100 µM (inactive) | > 100 µM (inactive) | – | > 100 µM (inactive) | > 100 µM (inactive) | > 100 µM (inactive) | > 100 µM (inactive) | > 100 µM (inactive) | > 100 µM (inactive) | > 100 µM (inactive) | > 100 µM (inactive) | > 100 µM (inactive) | –
7 | O=[N+]([O-])c1cc2c(cc1O)[nH]c1cccc([N+](=O)[O-])c12 | > 100 µM (inactive) | > 100 µM (inactive) | – | > 100 µM (inactive) | 40.7 µM (inactive) | > 100 µM (inactive) | > 100 µM (inactive) | > 100 µM (inactive) | > 100 µM (inactive) | > 100 µM (inactive) | > 100 µM (inactive) | > 100 µM (inactive) | > 100 µM (inactive) | > 100 µM (inactive) | > 100 µM (inactive) | > 100 µM (inactive) | > 100 µM (inactive) | > 100 µM (inactive) | –
8 | COc1ccc(/C(Cl)=C(\C=O)c2cc(OC)c(OC)c(OC)c2)cc1OC | 7.38 µM (inactive) | 56.6 µM (inactive) | 49 µM (inactive) | 26.2 µM (inactive) | 14.8 µM (inactive) | 17.8 µM (inactive) | 35.2 µM (inactive) | 16.8 µM (inactive) | 5.78 µM (inactive) | > 100 µM (inactive) | 27.7 µM (inactive) | 10.8 µM (inactive) | > 52.6 µM (inactive) | 24.8 µM (inactive) | 26.1 µM (inactive) | 19.8 µM (inactive) | 22.4 µM (inactive) | 22.9 µM (inactive) | 44.7 µM (inactive)
9 | c1ccc2c(CNCCCN3CCN(CCCNCc4cccc5ccccc45)CC3)cccc2c1 | 1.59 µM (inactive) | 1.5 µM (inactive) | 1.74 µM (inactive) | 1.61 µM (inactive) | 1.74 µM (inactive) | 1.77 µM (inactive) | 1.89 µM (inactive) | 1.82 µM (inactive) | 1.44 µM (inactive) | 0.655 µM (active) | 2.89 µM (inactive) | 1.74 µM (inactive) | – | 1.96 µM (inactive) | 1.24 µM (inactive) | 2.81 µM (inactive) | 1.22 µM (inactive) | 1.72 µM (inactive) | –
10 | CC1(SCC(N)C(=O)O)CC(=O)NC1=O (stereo unspecified) | > 100 µM (inactive) | > 100 µM (inactive) | > 100 µM (inactive) | > 100 µM (inactive) | > 100 µM (inactive) | > 100 µM (inactive) | > 100 µM (inactive) | > 100 µM (inactive) | > 100 µM (inactive) | > 100 µM (inactive) | > 100 µM (inactive) | > 100 µM (inactive) | > 100 µM (inactive) | > 100 µM (inactive) | > 100 µM (inactive) | > 100 µM (inactive) | > 100 µM (inactive) | > 100 µM (inactive) | –
11 | COc1ccc2c(C(=O)O)cc3cc(OC)c(OC)cc3c2c1 | > 100 µM (inactive) | > 100 µM (inactive) | > 100 µM (inactive) | > 100 µM (inactive) | 43.6 µM (inactive) | > 100 µM (inactive) | > 100 µM (inactive) | > 100 µM (inactive) | 57.4 µM (inactive) | > 100 µM (inactive) | > 100 µM (inactive) | > 100 µM (inactive) | > 100 µM (inactive) | > 100 µM (inactive) | > 100 µM (inactive) | > 100 µM (inactive) | > 100 µM (inactive) | – | –
12 | COc1ccc2c(c1)[n+]([O-])c(C(N)=O)c(N)[n+]2[O-] | 17.1 µM (inactive) | – | > 100 µM (inactive) | > 100 µM (inactive) | 40.1 µM (inactive) | 95.3 µM (inactive) | 73.3 µM (inactive) | > 100 µM (inactive) | 40.8 µM (inactive) | > 100 µM (inactive) | 32.7 µM (inactive) | 65.6 µM (inactive) | > 100 µM (inactive) | 59.2 µM (inactive) | – | > 100 µM (inactive) | – | > 100 µM (inactive) | –
13 | Cc1ccc(C(=O)O/N=C2/CCCCC2CN(C)C)cc1 (stereo unspecified) | > 100 µM (inactive) | > 100 µM (inactive) | > 100 µM (inactive) | > 100 µM (inactive) | > 100 µM (inactive) | > 100 µM (inactive) | > 100 µM (inactive) | > 100 µM (inactive) | > 100 µM (inactive) | > 100 µM (inactive) | > 100 µM (inactive) | > 100 µM (inactive) | – | > 100 µM (inactive) | > 100 µM (inactive) | > 100 µM (inactive) | > 100 µM (inactive) | > 100 µM (inactive) | –
14 | COc1ccc(NC(=O)CC(=O)n2nc(-c3ccccc3)c(/N=N/c3ccccc3C(=O)O)c2-c2ccccc2)cc1 | > 100 µM (inactive) | > 100 µM (inactive) | 18.5 µM (inactive) | 55.1 µM (inactive) | > 100 µM (inactive) | 25.2 µM (inactive) | > 100 µM (inactive) | > 100 µM (inactive) | – | 62.2 µM (inactive) | > 100 µM (inactive) | – | 63 µM (inactive) | > 100 µM (inactive) | > 100 µM (inactive) | 69.3 µM (inactive) | 40.6 µM (inactive) | > 100 µM (inactive) | –
15 | O=C(CC1(O)C(=O)Nc2ccccc21)c1ccco1 (stereo unspecified) | > 100 µM (inactive) | > 100 µM (inactive) | > 100 µM (inactive) | > 100 µM (inactive) | > 100 µM (inactive) | > 100 µM (inactive) | > 100 µM (inactive) | > 100 µM (inactive) | > 100 µM (inactive) | – | > 100 µM (inactive) | 94.8 µM (inactive) | > 100 µM (inactive) | – | – | > 100 µM (inactive) | > 100 µM (inactive) | > 100 µM (inactive) | –
16 | Nc1nc(SCc2ccccc2Cl)c2ncn(C3OC(CO)C(O)C3O)c2n1 (stereo unspecified) | 30.1 µM (inactive) | > 100 µM (inactive) | 98.2 µM (inactive) | 89.1 µM (inactive) | 54.2 µM (inactive) | 89.9 µM (inactive) | > 100 µM (inactive) | 29.1 µM (inactive) | 50.5 µM (inactive) | 42.7 µM (inactive) | 80.4 µM (inactive) | 23.3 µM (inactive) | 38.8 µM (inactive) | > 100 µM (inactive) | > 100 µM (inactive) | – | 49.3 µM (inactive) | > 100 µM (inactive) | –
17 | N#Cc1c(NN)nc(NN)c(C#N)c1-c1ccccc1 | – | > 100 µM (inactive) | > 100 µM (inactive) | > 100 µM (inactive) | > 100 µM (inactive) | > 100 µM (inactive) | > 100 µM (inactive) | > 100 µM (inactive) | > 100 µM (inactive) | – | > 100 µM (inactive) | > 100 µM (inactive) | > 100 µM (inactive) | > 100 µM (inactive) | > 100 µM (inactive) | 52.8 µM (inactive) | > 100 µM (inactive) | > 100 µM (inactive) | –
